Here are results for twelve molecules from US20250092065A1, “2-(INDAZOL-5-YL)-6-(PIPERIDIN-4-YL)-1,7-NAPHTHYRIDINE DERIVATIVES AND RELATED COMPOUNDS AS MODULATORS FOR SPLICING NUCLEIC ACIDS AND FOR THE TREATMENT OF PROLIFERATIVE DISEASES” (REMIX THERAPEUTICS INC., priority 2022, published 2025).

The structures appear in SMILES notation. Like-named read-outs stand apart in the source and are kept apart here.

What all share (format): cell-based, human
For one experiment, the system named is HTT mRNA. In words: RT-qPCR splicing assay, HTT mRNA canonical (CJ) and alternative (AJ) junction. As to conditions: Homo sapiens; for AC50: HTT alternative junction mRNA, read-out: HTT AJ (increase in AJ mRNA, AC50). An outline of the steps: (§1)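 Canonical and alternative-exon junction isoforms were quantified by RT-qPCR in cell lysates, with ΔCt against a housekeeper (GAPDH/GUSB/PPIA), then ΔΔCt vs DMSO, converted to 2^(−ΔΔCt) and percent response. K562 or A673 cells were exposed for 24 h to 11 concentrations (3-fold, top final 10 uM).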
On the technique in general: Real-time PCR tracks product formation cycle by cycle.

The subject of the next experiment is SMN2 mRNA. In words: RT-qPCR splicing assay, SMN2 mRNA. As to conditions: Homo sapiens, canonical junction qPCR panel, Table 4; read-out: SMN2 IC50 (decrease in CJ mRNA levels). An outline of the steps: as §1
The next experiment has as its system MYB mRNA. Nature of the experiment: RT-qPCR splicing assay, MYB mRNA canonical (CJ) and alternative (AJ) junction. As to conditions: Homo sapiens; for AC50: MYB alternative junction mRNA, read-out: MYB AJ (increase in AJ mRNA, AC50). In outline:
as §1

A further experiment deals with MYB. Nature of the experiment: HiBiT protein abundance assay, MYB (K562 HiBiT knock-in). As to conditions: HiBiT knock-in K562 cells, 24 hours, top dose 10 μM. An outline of the steps:
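Steps: seed HiBiT knock-in K562 cells; add compound in 10-point 3-fold series from 10 μM final; incubate 24 h, 37 °C; add lytic HiBiT reagent, shake 5 min, wait 10 min; read luminescence. Normalize to parental K562 and DMSO controls, fit 4PL, take IC50.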

The mark [1] stands for this setting: HTT canonical junction mRNA, RT-qPCR, read-out: HTT CJ (decrease in CJ mRNA levels, IC50).
[2] abbreviates: canonical junction qPCR panel, Table 4, read-out: HTT IC50 (decrease in CJ mRNA levels).
Setting [3] is: MYB canonical junction mRNA, RT-qPCR, read-out: MYB CJ (decrease in CJ mRNA levels, IC50).
Where [4] appears, read: canonical junction qPCR panel, Table 4, read-out: MYB IC50 (decrease in CJ mRNA levels).

With `Cc1c(O)c(-c2nc(C(N)=O)c3cc(N4CCNCC4)ccc3n2)cc2cn(C)nc12` [Compound 523, 2-(6-hydroxy-2,7-dimethylindazol-5-yl)-6-(piperazin-1-yl) quinazoline-4-carboxamide], the AC50 in the experiment with HTT mRNA (RT-qPCR) is 100 to 1000 nM; in the experiment on MYB mRNA (RT-qPCR), less than 100 nM. Further, the IC50 in the experiment on HTT mRNA (setting [1]) was 100 to 1000 nM; with HTT mRNA (setting [2]), 100 to 1000 nM; in the experiment on SMN2 mRNA, less than 100 nM; in the experiment with MYB mRNA (setting [3]), less than 100 nM; in the experiment with MYB mRNA (setting [4]), less than 100 nM; with MYB it was less than 100 nM.

For `Cc1c(O)c(-c2nc(C(=O)O)c3cc(N4CCNCC4)ccc3n2)cc2cn(C)nc12` [Compound 524, 2-(6-hydroxy-2,7-dimethylindazol-5-yl)-6-(piperazin-1-yl) quinazoline-4-carboxylic acid], the AC50 with HTT mRNA (RT-qPCR) and with MYB mRNA (RT-qPCR) was more than 10000 nM throughout. For the same molecule, the IC50 in the experiment on HTT mRNA (setting [1]) is more than 10000 nM; in the experiment on HTT mRNA (setting [2]) it was more than 10000 nM; in the experiment with SMN2 mRNA it was 1000 to 10000 nM; in the experiment with MYB mRNA (setting [3]), more than 10000 nM; in the experiment with MYB mRNA (setting [4]), more than 10000 nM; with MYB, more than 10000 nM.

Turning to `Cc1c(O)c(-c2ncc3cc(N4C[C@@H](C)N[C@@H](C)C4)ccc3n2)cc2cn(C)nc12` [Compound 525, 5-{6-[(3R,5S)-3,5-dimethylpiperazin-1-yl]quinazolin-2-yl}-2,7-dimethylindazol-6-ol], the AC50 is 100 to 1000 nM in the experiment with HTT mRNA (RT-qPCR) and less than 100 nM in the experiment with MYB mRNA (RT-qPCR). Besides, the IC50 in the experiment on HTT mRNA (setting [1]) was 100 to 1000 nM; in the experiment on HTT mRNA (setting [2]), 100 to 1000 nM; in the experiment with SMN2 mRNA it was less than 100 nM; in the experiment on MYB mRNA (setting [3]), less than 100 nM; in the experiment with MYB mRNA (setting [4]), less than 100 nM; in the experiment with MYB it was less than 100 nM.

For `Cc1c(O)c(-c2ncc3nc(N4C[C@@H](C)N[C@@H](C)C4)ccc3n2)cc2cn(C)nc12` [Compound 526, 5-{6-[(3R,5S)-3,5-dimethylpiperazin-1-yl]pyrido[3,2-d]pyrimidin-2-yl}-2,7-dimethylindazol-6-ol], the values for the concentration at half-maximal activity (AC50) in the experiment on HTT mRNA (RT-qPCR) and in the experiment with MYB mRNA (RT-qPCR) were 1000 to 10000 nM and 100 to 1000 nM, respectively. Besides, the half-inhibitory concentration (IC50) is 100 to 1000 nM in the experiment on HTT mRNA (setting [1]); 100 to 1000 nM with HTT mRNA (setting [2]); less than 100 nM in the experiment on SMN2 mRNA; less than 100 nM with MYB mRNA (setting [3]); less than 100 nM in the experiment with MYB mRNA (setting [4]); 100 to 1000 nM in the experiment with MYB.

In the case of `CNC(=O)c1nc(-c2cc3cn(C)nc3c(F)c2O)nc2ccc(N3C[C@@H](C)N[C@@H](C)C3)cc12` [Compound 527, 6-[(3R,5S)-3,5-dimethylpiperazin-1-yl]-2-(7-fluoro-6-hydroxy-2-methylindazol-5-yl)-N-methylquinazoline-4-carboxamide], the concentration at half-maximal activity (AC50) with HTT mRNA (RT-qPCR) was 100 to 1000 nM; in the experiment on MYB mRNA (RT-qPCR), less than 100 nM. Besides, the IC50 with HTT mRNA (setting [1]), with HTT mRNA (setting [2]), in the experiment with SMN2 mRNA, in the experiment on MYB mRNA (setting [3]), in the experiment on MYB mRNA (setting [4]) and in the experiment with MYB was less than 100 nM in each case.

Take `CNC(=O)c1nc(-c2cc3cn(C)nc3c(F)c2O)nc2ccc(N3CCC(N(C)C)CC3)cc12` [Compound 528, 6-[4-(dimethylamino)piperidin-1-yl]-2-(7-fluoro-6-hydroxy-2-methylindazol-5-yl)-N-methylquinazoline-4-carboxamide]: the AC50 is 1000 to 10000 nM in the experiment with HTT mRNA (RT-qPCR) and less than 100 nM in the experiment with MYB mRNA (RT-qPCR). For the same molecule, the IC50 in the experiment on HTT mRNA (setting [1]) was 100 to 1000 nM; in the experiment on HTT mRNA (setting [2]) it was 100 to 1000 nM; in the experiment with SMN2 mRNA it was less than 100 nM; with MYB mRNA (setting [3]), less than 100 nM; with MYB mRNA (setting [4]), less than 100 nM; in the experiment on MYB, less than 100 nM.

Take `CNC(=O)c1nc(-c2cc3cn(C)nc3c(F)c2O)nc2ccc(N3CCN[C@@H](C)C3)cc12` [Compound 529, 2-(7-fluoro-6-hydroxy-2-methylindazol-5-yl)-N-methyl-6-[(3S)-3-methylpiperazin-1-yl]quinazoline-4-carboxamide]: the figures for the concentration at half-maximal activity (AC50) with HTT mRNA (RT-qPCR) and in the experiment with MYB mRNA (RT-qPCR) were 100 to 1000 nM and less than 100 nM, respectively. Also, the IC50 in the experiment on HTT mRNA (setting [1]) is 100 to 1000 nM; with HTT mRNA (setting [2]), 100 to 1000 nM; with SMN2 mRNA it was less than 100 nM; in the experiment on MYB mRNA (setting [3]) it was less than 100 nM; in the experiment on MYB mRNA (setting [4]), less than 100 nM; with MYB, less than 100 nM.

In the case of `CNC(=O)c1nc(-c2cc3cn(C)nc3cc2O)nc2ccc(N3CCN[C@@H](C)C3)cc12` [Compound 530, 2-(6-hydroxy-2-methylindazol-5-yl)-N-methyl-6-[(3S)-3-methylpiperazin-1-yl]quinazoline-4-carboxamide], the AC50 is 1000 to 10000 nM in the experiment with HTT mRNA (RT-qPCR) and less than 100 nM in the experiment with MYB mRNA (RT-qPCR). For the same molecule, the half-inhibitory concentration (IC50) was 1000 to 10000 nM in the experiment on HTT mRNA (setting [1]); 1000 to 10000 nM with HTT mRNA (setting [2]); less than 100 nM in the experiment with SMN2 mRNA; less than 100 nM with MYB mRNA (setting [3]); less than 100 nM with MYB mRNA (setting [4]); less than 100 nM in the experiment on MYB.

Consider `CNC(=O)c1nc(-c2cc3cn(C)nc3cc2O)nc2ccc(N3C[C@@H](C)N[C@@H](C)C3)cc12` [Compound 531, 6-[(3R,5S)-3,5-dimethylpiperazin-1-yl]-2-(6-hydroxy-2-methylindazol-5-yl)-N-methylquinazoline-4-carboxamide], for which the figures for the AC50 in the experiment with HTT mRNA (RT-qPCR) and in the experiment on MYB mRNA (RT-qPCR) were more than 10000 nM and less than 100 nM, respectively. For the same molecule, the IC50 in the experiment on HTT mRNA (setting [1]) was 1000 to 10000 nM; in the experiment on HTT mRNA (setting [2]), 1000 to 10000 nM; in the experiment with SMN2 mRNA it was less than 100 nM; with MYB mRNA (setting [3]), less than 100 nM; in the experiment with MYB mRNA (setting [4]) it was less than 100 nM; in the experiment with MYB it was less than 100 nM.

`CNC(=O)c1nc(-c2cc3cn(C)nc3c(C)c2O)nc2ccc(N3CCNC4(CC4)C3)cc12` [Compound 532, 6-{4,7-diazaspiro[2.5]octan-7-yl}-2-(6-hydroxy-2,7-dimethylindazol-5-yl)-N-methylquinazoline-4-carboxamide]: the AC50 is 100 to 1000 nM with HTT mRNA (RT-qPCR) and less than 100 nM in the experiment on MYB mRNA (RT-qPCR). For the same molecule, the concentration for half-maximal inhibition (IC50) in the experiment on HTT mRNA (setting [1]) was 100 to 1000 nM; in the experiment with HTT mRNA (setting [2]), 100 to 1000 nM; in the experiment on SMN2 mRNA, less than 100 nM; in the experiment with MYB mRNA (setting [3]), less than 100 nM; with MYB mRNA (setting [4]), less than 100 nM; in the experiment on MYB, less than 100 nM.

Turning to `CNC(=O)c1nc(-c2cc3cn(C)nc3c(C)c2O)nc2ccc(N3CCNCC3)nc12` [Compound 533, 2-(6-hydroxy-2,7-dimethylindazol-5-yl)-N-methyl-6-(piperazin-1-yl)pyrido[3,2-d]pyrimidine-4-carboxamide], the concentration at half-maximal activity (AC50) is 1000 to 10000 nM in the experiment with HTT mRNA (RT-qPCR) and 100 to 1000 nM in the experiment on MYB mRNA (RT-qPCR). The IC50 is 1000 to 10000 nM in the experiment with HTT mRNA (setting [1]); 1000 to 10000 nM in the experiment on HTT mRNA (setting [2]); less than 100 nM with SMN2 mRNA; 100 to 1000 nM with MYB mRNA (setting [3]); 100 to 1000 nM in the experiment with MYB mRNA (setting [4]); 100 to 1000 nM in the experiment on MYB.

For the molecule `CNC(=O)c1nc(-c2cc3cn(C)nc3c(C)c2O)nc2ccc(N3C[C@@H](C)N[C@@H](C)C3)nc12` [Compound 534, 6-[(3R,5S)-3,5-dimethylpiperazin-1-yl]-2-(6-hydroxy-2,7-dimethylindazol-5-yl)-N-methylpyrido[3,2-d]pyrimidine-4-carboxamide], the values for the AC50 with HTT mRNA (RT-qPCR) and in the experiment on MYB mRNA (RT-qPCR) were more than 10000 nM and 100 to 1000 nM, respectively. The IC50 is more than 10000 nM in the experiment on HTT mRNA (setting [1]); more than 10000 nM in the experiment on HTT mRNA (setting [2]); less than 100 nM in the experiment with SMN2 mRNA; 100 to 1000 nM with MYB mRNA (setting [3]); 100 to 1000 nM in the experiment on MYB mRNA (setting [4]); 100 to 1000 nM in the experiment on MYB.

Usually AC50 stands for the midpoint of the concentration-response curve, whichever way the signal moves. Usually IC50 stands for the concentration needed to halve the response being measured.
